These are literature values, as cited in patent publication US20230000917A1, “TREATMENT OF HEPATITIS B VIRUS (HBV) INFECTION” (UCL BUSINESS LTD, priority 2019, published 2023).

The conditions of series [1]: in vivo.
For series [2] the following is noted: in vivo. This is another data set of the same source.
The subject of series [3] is macrophage foam cell formation and atherosclerosis progression. Particulars: oral administration, animal models.

For the compound `CC(C)c1cc(C(C)C)c(CC(=O)NS(=O)(=O)Oc2c(C(C)C)cccc2C(C)C)c(C(C)C)c1` [Avasimibe], in series [1], the oral bioavailability result is listed as “orally bioavailable”. Besides, in series [2], the “plasma VLDL-cholesterol” value is given as “significantly reduce” and the plasma total triglyceride entry is on record as “significantly reduce”.
For the compound `CSc1cc(C)nc(SC)c1NC(=O)CN1CCN(CCSc2nc3ccccc3[nH]2)CC1.Cl.Cl` [K604, 4-[2-(1H-Benzimidazol-2-ylthio)ethyl]-N-[6-methyl-2,4-bis(methylthio)-3-pyridinyl]-1-piperazineacetamide dihydrochloride], the “macrophage foam cell formation and atherosclerosis progression” value in series [3] was “promising results”.
